TGI data for 33 compounds are collected here from PubChem BioAssay (NCI).

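Each compound was tested at five concentrations against cells in 96-well plates for 48 hours. The concentration for full growth arrest is given as TGI.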

Assay in all cases: NCI anticancer screen, dose series, 48 h
Assay [1] concerns BT-549 breast.
Assay [2] deals with HT29 colon.
The subject of assay [3] is K-562 leukemia.
The test system of assay [4] is MDA-MB-231 breast.
The subject of assay [5] is MOLT-4 leukemia.
Assay [6] relates to OVCAR-3 ovarian.
Assay [7] deals with SN12C renal.
Assay [8] has as its system SR leukemia.

Regarding `CC1(C)CN=CC(C)(OCc2ccccc2)C(=O)NC(C)(C)CN=CC(C)(OCc2ccccc2)C(=O)N1` (stereo not drawn), the TGI in assay [1], in assay [2], in assay [3], in assay [4], in assay [5] and in assay [6] was over 10 µM each time. The TGI in assay [7] and in assay [8] was over 10 µM in each case.

Regarding `O=c1c2cc(I)ccc2nc(SCc2nnco2)n1Cc1ccccc1`, the TGI in assay [1] is over 100 µM; in assay [2], over 100 µM; in assay [4], over 100 µM; in assay [5], 47.4 µM; in assay [6] it was over 100 µM; in assay [7], over 100 µM. Besides, the TGI in assay [8] was over 100 µM.

Turning to `C=CCOCn1ccc(N)nc1=O`, the TGI in assay [1], in assay [2], in assay [3], in assay [4], in assay [5] and in assay [7] was over 100 µM in each case. The TGI in assay [8] is over 100 µM.

Turning to `CCOC(=O)C(NC(=O)CC)(Nc1ccc(S(=O)(=O)Nc2ccc(OC)nn2)cc1)C(F)(F)F` (stereo not drawn), the TGI in assay [1], in assay [2], in assay [3], in assay [4], in assay [5] and in assay [6] was over 100 µM in each case. Besides, the TGI in assay [7] and in assay [8] was over 100 µM in each case.

Turning to `CCC(=O)N1C(=O)C(CC)(CC)C(=O)N1C(=O)CC`, the TGI in assay [1], in assay [2], in assay [3], in assay [4], in assay [5] and in assay [6] was over 100 µM in each case. The TGI in assay [7] and in assay [8] was over 100 µM in each case.

As for `CCN(CC)C1Oc2cc3c(cc2C(c2cccc(OC)c2O)C1C)OCO3` (stereo not drawn), the TGI in assay [1] was over 44.9 µM; in assay [2], 27.5 µM; in assay [3] it was over 100 µM; in assay [4], over 49.7 µM; in assay [5], 28 µM; in assay [6] it was 5.5 µM. The results for the TGI in assay [7] and in assay [8] were 16.4 µM and 25.3 µM, respectively.

As for `OC1(c2ccc(Cl)cc2)c2c(c3ccccc3c3ccccc23)C2=NCCN21` (stereo not drawn), the TGI in assay [1] is 33.7 µM; in assay [2], 35.5 µM; in assay [3], over 100 µM; in assay [4], 26.8 µM; in assay [5], over 100 µM; in assay [6], 62.1 µM. In addition, the TGI in assay [7] was 44.7 µM; in assay [8], 30.5 µM.

For the compound `NC1=Nc2ccccc2Sc2nc3ccccc3n21`, the TGI was over 100 µM in assay [1]; 31.3 µM in assay [2]; over 100 µM in assay [3]; over 100 µM in assay [4]; over 100 µM in assay [5]; over 100 µM in assay [6]. In addition, the TGI in assay [7] and in assay [8] was over 100 µM throughout.

For the compound `COc1cc(C2c3cc(OC)c(OC)c(O)c3C(=O)C3CCC(=O)N32)cc(OC)c1OC` (stereo not drawn), the TGI in assay [1] was 91.3 µM; in assay [2] it was over 100 µM; in assay [3] it was over 100 µM; in assay [4], over 100 µM; in assay [5], over 100 µM; in assay [6], over 100 µM. For the same compound, the TGI in assay [7] and in assay [8] was over 100 µM in each case.

Take `CN(C)C=NCC(O)c1ccccc1` (stereo not drawn): the TGI in assay [1], in assay [2], in assay [3], in assay [4], in assay [5] and in assay [6] was over 100 µM each time. The TGI in assay [7] and in assay [8] was over 100 µM in each case.

In the case of `O=C(N[C@H]1CCC[C@H]1C(=O)Nc1ccc(C(F)(F)F)cc1)OCc1ccccc1`, the TGI in assay [1], in assay [2], in assay [3], in assay [4], in assay [5] and in assay [6] was over 100 µM in each case. For the same compound, the TGI in assay [7] and in assay [8] was over 100 µM throughout.

For the compound `COc1ccc(N2N=NN(C(C)C)/C2=C(/Cl)c2nnnn2-c2ccc(OC)cc2)cc1`, the TGI in assay [1] is 29.7 µM; in assay [2] it was 24.4 µM; in assay [3], over 32.5 µM; in assay [4], 22.6 µM; in assay [5], 14.8 µM; in assay [6], 24.5 µM. For the same compound, the TGI in assay [7] was 28.2 µM; in assay [8], over 31.8 µM.

`COc1ccc(N2C(=O)C3c4[nH]c5ccccc5c4C4c5ccccc5CC4C3C2=O)cc1` (stereo not drawn): the TGI in assay [1], in assay [2], in assay [3], in assay [4], in assay [5] and in assay [6] was over 100 µM each time. The TGI in assay [7] and in assay [8] was over 100 µM throughout.

`CCn1c(=O)c2c3ccc(OC)cc3[nH]c2c2ccc(OC)cc21`: the TGI in assay [1], in assay [2], in assay [3], in assay [4], in assay [5] and in assay [6] was over 100 µM throughout. For the same compound, the TGI in assay [7] and in assay [8] was over 100 µM in each case.

As for `COc1cc(/C=C/C(=N\NC(=S)NN)c2sc(NNC(C)=O)nc2C)ccc1O`, the TGI in assay [1], in assay [2], in assay [3], in assay [4], in assay [5] and in assay [6] was over 100 µM throughout. In addition, the TGI in assay [7] and in assay [8] was over 100 µM throughout.

For `CC(C)=CCC[C@@H](C)C1=CC(=O)C(C)=C(O)C1=O`, the TGI in assay [1] was 18.1 µM; in assay [2] it was 22.5 µM; in assay [3] it was 5.79 µM; in assay [4], 18.1 µM; in assay [5] it was over 23.5 µM; in assay [6] it was 15.8 µM. Further, the values for the TGI in assay [7] and in assay [8] were 22.6 µM and 5.98 µM, respectively.

With `COc1ccc(Cn2c3ccc([N+](=O)[O-])cc3c(=O)n2Cc2ccccn2)cc1`, the TGI in assay [1], in assay [2], in assay [3], in assay [4], in assay [5] and in assay [6] was over 100 µM in each case. Also, the TGI in assay [7] and in assay [8] was over 100 µM throughout.

In the case of `COc1ccc(-c2nc(-c3cnccn3)n(Cc3ccccc3)n2)cc1`, the TGI in assay [1], in assay [2], in assay [3], in assay [4], in assay [5] and in assay [6] was over 100 µM in each case. For the same compound, the TGI in assay [7] and in assay [8] was over 100 µM throughout.

`COc1cc(O)cc(O)c1C(=O)CC(Cl)(Cl)Cl`: the TGI in assay [1], in assay [2], in assay [3], in assay [4], in assay [5] and in assay [6] was over 100 µM throughout. The TGI in assay [7] and in assay [8] was over 100 µM throughout.

As to `S=C(N/N=C(\C(=N/NC(=S)N1CCCCC1)c1ccccn1)c1ccccn1)N1CCCCC1`, the TGI in assay [1], in assay [2], in assay [3], in assay [4], in assay [5] and in assay [6] was over 100 µM in each case. Besides, in assay [8], the TGI is over 100 µM.

As for `O=C1CC(C(COCc2ccccc2)OCc2ccccc2)CC(=O)N1` (stereo not drawn), the TGI in assay [1], in assay [2], in assay [3], in assay [4], in assay [5] and in assay [6] was over 100 µM in each case. The TGI in assay [7] and in assay [8] was over 100 µM in each case.

As to `Nc1ccccc1OCCCOc1ccccc1N`, the TGI in assay [1], in assay [2], in assay [3], in assay [4], in assay [5] and in assay [6] was over 100 µM each time. Also, the TGI in assay [7] and in assay [8] was over 100 µM in each case.

`CCOC1NC(/N=C/c2ccc(OC)cc2)=C(C#N)C1C#N` (stereo not drawn): the TGI is 73.5 µM in assay [1]; over 100 µM in assay [2]; over 100 µM in assay [3]; over 100 µM in assay [4]; over 100 µM in assay [5]; over 100 µM in assay [6]. The TGI in assay [7] and in assay [8] was over 100 µM throughout.

For the compound `CCN(CC)c1ccc2cc(C(N)=O)c(=Nc3ccc(F)cc3)oc2c1`, the TGI was over 100 µM in assay [1]; over 100 µM in assay [2]; over 100 µM in assay [3]; 88.5 µM in assay [4]; over 100 µM in assay [5]; over 100 µM in assay [6]. Besides, the TGI in assay [7] and in assay [8] was over 100 µM in each case.

For `O=C(NNS(=O)(=O)c1ccccc1)c1csc(NC(=S)NC2CCCCC2)n1`, the TGI was 45.3 µM in assay [1]; over 100 µM in assay [2]; over 100 µM in assay [3]; 52.6 µM in assay [4]; over 100 µM in assay [5]; 34.4 µM in assay [6]. In addition, the TGI is 39.3 µM in assay [7] and over 100 µM in assay [8].

Take `CC(=O)c1[nH]c(Nc2ccc(C)cc2)c(C(=S)Nc2ccccc2)c1N`: the TGI in assay [1] is 31.6 µM; in assay [2], over 100 µM; in assay [3], 72.2 µM; in assay [4], 35.7 µM; in assay [5], over 100 µM; in assay [6] it was 35.5 µM. For the same compound, the TGI in assay [7] is 35 µM; in assay [8], over 100 µM.

Consider `O=C1CCCCN1C(=O)c1ccc([N+](=O)[O-])cc1`, for which the TGI in assay [1], in assay [2], in assay [3], in assay [4], in assay [5] and in assay [6] was over 100 µM throughout. Also, the TGI in assay [7] and in assay [8] was over 100 µM in each case.

Turning to `C[N+]1([O-])[C@H]2CC(OC(=O)[C@H](CO)c3ccccc3)C[C@H]1[C@H]1O[C@H]12` (stereo partly drawn), the TGI in assay [1], in assay [2], in assay [3], in assay [4], in assay [5] and in assay [6] was over 100 µM each time. In addition, the TGI in assay [7] and in assay [8] was over 100 µM throughout.

On to `COC12C=CC(CC1)C(C)(C)C2OS(C)(=O)=O` (stereo not drawn), for which the TGI in assay [1], in assay [2], in assay [3], in assay [4], in assay [5] and in assay [6] was over 100 µM each time. The TGI in assay [7] and in assay [8] was over 100 µM each time.

With `O=C(/C=C/c1ccccc1)Oc1cccc(Br)c1`, the TGI in assay [1] is over 100 µM; in assay [2], over 100 µM; in assay [4], over 100 µM; in assay [5], 29.8 µM; in assay [6], over 100 µM; in assay [7], over 100 µM. Moreover, in assay [8], the TGI was 59.3 µM.

`C[C@@]12C[C@@H](c3ccccc3O1)N1Cc3ccccc3CSC1=N2`: the TGI in assay [1], in assay [2], in assay [3], in assay [4], in assay [5] and in assay [6] was over 100 µM throughout. In addition, the TGI in assay [7] and in assay [8] was over 100 µM in each case.

As for `N#Cc1ccc2[nH]c3c(c2c1)CC(=O)Nc1ccccc1-3`, the TGI in assay [1], in assay [2], in assay [3], in assay [4], in assay [5] and in assay [6] was over 100 µM in each case. Besides, the TGI in assay [8] was over 100 µM.

`CC(=O)OCC1OC(SC2=NC(=O)/C(=C/c3ccccc3)S2)C(OC(C)=O)C(OC(C)=O)C1OC(C)=O` (stereo not drawn): the TGI is 78.9 µM in assay [1]; over 100 µM in assay [2]; 44.5 µM in assay [4]; 54.5 µM in assay [5]; 44.4 µM in assay [6]; over 100 µM in assay [7]. Also, in assay [8], the TGI came to 51.5 µM.
